Data as given in US10124065B2, “Lipids and lipid compositions for the delivery of active agents” (Novartis AG, priority 2013, dated 2018).
“And” between values parts separate entries of the source, which are not always exact repeats. Identical values can stand only once.

Assays:
[1] = tested on: plasma Factor VII enzyme activity; assay: Mouse Factor VII dosing / Factor VII Activity Assay; assay type: in vivo; conditions: percent knock down of plasma Factor VII activity, CD-1 mice, 48 h; for KD FVII 0.3 mg/kg: single IV dose 0.3 mg/kg; for KD FVII 0.03 mg/kg: single IV dose 0.03 mg/kg
Procedure: Female CD-1 mice were received from Harlan Labs and maintained on standard lab chow and water ad libitum. The animals weighed approximately 25 grams at time of dosing. Formulated Factor VII siRNA was administered as a single dose intravenously via the lateral tail vein. Approximately 48 hours after injection, the mice were euthanized by CO2 inhalation followed by exsanguination through the vena cava. […] Plasma collected from injected mice was assayed for Factor VII enzyme activity using the Biophen FVII kit from Hyphen Biomedical (catalog number 221304). An assay standard curve was prepared using pooled plasma aliquots from the vehicle control animals. All samples were diluted to fall within the linear range of the standard curve and Factor VII activity relative to control plasma was reported. Lipid nanoparticles comprising lipid compounds of formula (I) and the FVII siRNA duplex sequence listed above were tested in the Factor VII Activity Assay. The results of this assay are given in Table 4 below as a percent knock down of plasma Factor VII enzyme activity at a dose of 0.3 mg/kg and 0.03 mg/kg.

[2] = tested on: respiratory syncytial virus F protein; assay: Immunization studies, anti-RSV-F titers; assay type: in vivo; conditions: anti-RSV-F titer, BALB/c, liposomes with 0.1 μg vA317 replicon (naked: 1 μg); for 2wp1 pool 1 / 2wp1 pool 2: 2 weeks after first dose; for 2wp2 pool 1 / 2wp2 pool 2: 2 weeks after second dose; for 4wp2 pool 1 / 4wp2 pool 2: 4 weeks after second dose
Procedure: BALB/c were immunized with liposomes comprising DSPC, cholesterol, and various lipids of the invention (or, for comparison, the cationic lipid 1,2-dilinoleyloxy-N,N-dimethyl-3-aminopropane or ‘DLinDMA’). The liposomes encapsulated 0.1 μg of “vA317” self-replicating RNA replicon which encodes respiratory syncytial virus F protein (see WO2012/031043). […] Doses were given either on days 0 & 21 or days 0 & 42. Immune responses were assessed 2 weeks after each dose (2wp1, 2wp2), and in some cases also at 4 weeks after the second dose (4wp2).

[3] = LNP Chol/DSPC/PEG-DMG 45/44/9/2

SMILES | 2wp1 pool 1 ([2]; course A = days 0 & 21) | 2wp1 pool 2 ([2]; course A = days 0 & 21) | 2wp2 pool 1 ([2]; course A = days 0 & 21) | 2wp2 pool 2 ([2]; course A = days 0 & 21) | 4wp2 pool 1 ([2]; course A = days 0 & 21) | 4wp2 pool 2 ([2]; course A = days 0 & 21) | further results
CCCCCCCCCCCCC(=O)OCc1cc(COC(=O)CCCCCCCCCCCC)cc(CN(C)C)c1 [Example 34, (5-((dimethylamino)methyl)-1,3-phenylene)bis(methylene)ditridecanoate] |  |  |  |  |  |  | KD FVII 0.3 mg/kg [1, 3]: 0%
CCCCC/C=C\C/C=C\CCCCCCCC(=O)OCc1cc(COC(=O)CCCCCCC/C=C\C/C=C\CCCCC)cc(COC(=O)CCN(C)C)c1 [Example 29, (9Z,9′Z,12Z,12′Z)-(5-(((3-(dimethylamino)propanoyl)oxy)methyl)-1,3-phenylene)bis(methylene)bis(octadeca-9,12-dienoate)] | 2101 | 3584 | 12529 | 18669 | 23930 | 37278 | 
CCCCC/C=C\C/C=C\CCCCCCCCOc1cc(COC(=O)OCCCN(C)C)cc(OCCCCCCCC/C=C\C/C=C\CCCCC)c1 [Example 68, 3,5-bis((9Z,12Z)-octadeca-9,12-dien-1-yloxy)benzyl (3-(dimethylamino)propyl) carbonate] | 1031 | 494 | 11315 | 7800 | 12963 | 17734 | 
CCCCC/C=C\C/C=C\CCCCCCCCOc1cc(CCCOC(=O)CCN(C)C)cc(OCCCCCCCC/C=C\C/C=C\CCCCC)c1 [Example 81, 3-(3,5-bis((9Z,12Z)-octadeca-9,12-dien-1-yloxy)phenyl)propyl 3-(dimethylamino)propanoate] | 1779 | 1553 | 24648 | 15304 | 41921 | 34684 | 
CCCCC/C=C\C/C=C\CCCCCCCC(=O)OCCCCOc1cc(CN2CCCC2)cc(OCCCCOC(=O)CCCCCCC/C=C\C/C=C\CCCCC)c1 [Ex. 112, (9Z,9′Z,12Z,12′Z)-((5-(pyrrolidin-1-ylmethyl)-1,3-phenylene)bis(oxy))bis(butane-4,1-diyl)bis(octadeca-9,12-dienoate)] |  |  |  |  |  |  | KD FVII 0.03 mg/kg [1, 3]: 86%
CCCCC/C=C\C/C=C\CCCCCCCCNC(=O)c1cc(COC(=O)CCCN(C)C)cc(C(=O)NCCCCCCCC/C=C\C/C=C\CCCCC)c1 [Example 66, 3,5-bis((9Z,12Z)-octadeca-9,12-dien-1-ylcarbamoyl)benzyl 4-(dimethylamino)butanoate] | 75 | 75 | 75 | 75 | 75 | 75 | 
CCCCC/C=C\C/C=C\CCCCCCCC(=O)OCc1cc(COC(=O)CCCCCCC/C=C\C/C=C\CCCCC)cc(COC(=O)OCCN(C)C)c1 [Example 70, (9Z,9′Z,12Z,12′Z)-(5-((((2-(dimethylamino)ethoxy)carbonyl)oxy)methyl)-1,3-phenylene)bis(methylene)bis(octadeca-9,12-dienoate)] | 1416 | 3110 | 31550 | 20124 | 18779 | 18358 | 
CC/C=C\C/C=C\C/C=C\CCCCCCCC(=O)OCCCCOc1cc(CN(C)C)cc(OCCCCOC(=O)CCCCCCC/C=C\C/C=C\C/C=C\CC)c1 [Example 62, (9Z,9′Z,12Z,12′Z,15Z,15′Z)-((5-((dimethylamino)methyl)-1,3-phenylene)bis(oxy))bis(butane-4,1-diyl)bis(octadeca-9,12,15-trienoate)] |  |  |  |  |  |  | KD FVII 0.03 mg/kg ([1]; LNP Chol/DSPC/S010 45/44/9/2): 85.8%
CCCCC/C=C\C/C=C\CCCCCCCC(=O)OCCOc1cc(CN(C)C)cc(OCCOC(=O)CCCCCCC/C=C\C/C=C\CCCCC)c1 [Example 40, (9Z,9′Z, 12Z, 12′Z)-((5-((dimethylamino)methyl)-1,3-phenylene)bis(oxy))bis(ethane-2,1-diyl)bis(octadeca-9,12-dienoate)] |  |  |  |  |  |  | KD FVII 0.03 mg/kg ([1]; LNP Chol/DSPC/S010 45/44/9/2): 8.2%; KD FVII 0.3 mg/kg [1, 3]: 89.8%
CCCCCCCCCC(=O)OCCCCCCOc1cc(CN(C)C)cc(OCCCCCCOC(=O)CCCCCCCCC)c1 [Example 47, ((5-((dimethylamino)methyl)-1,3-phenylene)bis(oxy))bis(hexane-6,1-diyl)bis(decanoate)] |  |  |  |  |  |  | KD FVII 0.3 mg/kg [1, 3]: 99%
CCCCC/C=C\C/C=C\CCCCCCCC(=O)OCCCCOc1cc(CN(CC)CC)cc(OCCCCOC(=O)CCCCCCC/C=C\C/C=C\CCCCC)c1C [Example 55, (9Z,9′Z,12Z,12′Z)-((5-((diethylamino)methyl)-2-methyl-1,3-phenylene)bis(oxy))bis(butane-4,1-diyl)bis(octadeca-9,12-dienoate)] |  |  |  |  |  |  | KD FVII 0.3 mg/kg [1, 3]: 98.0%
CCCCC/C=C\C/C=C\CCCCCCCCOc1cc(C(=O)OCCCN(C)C)cc(OCCCCCCCC/C=C\C/C=C\CCCCC)n1 [Example 25, 3-(dimethylamino)propyl 2,6-bis((9Z,12Z)-octadeca-9,12-dien-1-yloxy)isonicotinate] | 1217 | 1883 | 1611 | 1156 | 2850 | 1767 | 
CCCCCCCCCCCCCC(=O)OCCCCOc1cc(CN(C)C)cc(OCCCCOC(=O)CCCCCCCCCCCCC)c1 [Example 61, ((5-((dimethylamino)methyl)-1,3-phenylene)bis(oxy))bis(butane-4,1-diyl)ditetradecanoate] |  |  |  |  |  |  | KD FVII 0.03 mg/kg ([1]; LNP Chol/DSPC/S010 45/44/9/2): 0%
CCCCCCCC/C=C\CCCCCCCCOc1cc(OCCCCCCCC/C=C\CCCCCCCC)cc(C2OCC(COC(=O)CN(C)C)O2)c1 (stereo not drawn) [Example 12, (2-(3,5-bis((Z)-octadec-9-en-1-yloxy)phenyl)-1,3-dioxolan-4-yl)methyl 2-(dimethylamino)acetate] |  |  |  |  |  |  | 2wp1 pool 1 ([2]; course B = days 0 & 42): 88; 2wp1 pool 2 ([2]; course B = days 0 & 42): 128; 2wp2 pool 1 ([2]; course B = days 0 & 42): 4550; 2wp2 pool 2 ([2]; course B = days 0 & 42): 4828; 4wp2 pool 1 ([2]; course B = days 0 & 42): 4787; 4wp2 pool 2 ([2]; course B = days 0 & 42): 3972
CCCCCCCC(=O)OCCCCCCCCCCOc1cc(CN(CC)CC)cc(OCCCCCCCCCCOC(=O)CCCCCCC)c1OCCCCCCCCCCOC(=O)CCCCCCC [Ex. 100, ((5-((diethylamino)methyl)benzene-1,2,3-triyl)tris(oxy))tris(decane-10,1-diyl)trioctanoate] |  |  |  |  |  |  | KD FVII 0.03 mg/kg ([1]; LNP Chol/DSPC/S010 45/44/9/2): 26.9%; KD FVII 0.3 mg/kg [1, 3]: 94.0%
CCCCC/C=C\C/C=C\CCCCCCCCOCC(CN(C)C)OCCCCCCCC/C=C\C/C=C\CCCCC (stereo not drawn) [DLinDMA, 1,2-dilinoleyloxy-N,N-dimethyl-3-aminopropane, reference compound] |  |  |  |  | 26504 and 50799 | 28008 and 35992 | 2wp1 pool 1 ([2]; course B = days 0 & 42): 13; 2wp1 pool 2 ([2]; course B = days 0 & 42): 4; 2wp2 pool 1 ([2]; course B = days 0 & 42): 18290; 2wp2 pool 2 ([2]; course B = days 0 & 42): 5538; 4wp2 pool 1 ([2]; course B = days 0 & 42): 13936; 4wp2 pool 2 ([2]; course B = days 0 & 42): 7020
CCCCCCCC(=O)OC[C@@H](CCOc1cc(CN(C)C)cc(OCC[C@H](COC(=O)CCCCCCC)OC(=O)CCCCCCC)c1)OC(=O)CCCCCCC [Example 94, (R)-4-(3-((R)-3,4-bis(octanoyloxy)butoxy)-5-((dimethylamino)methyl)phenoxy)butane-1,2-diyldioctanoate] |  |  |  |  |  |  | KD FVII 0.03 mg/kg ([1]; LNP Chol/DSPC/S010 45/44/9/2): 90%
CCCCCCCC/C=C\CCCCCCCCOc1cc(OCCCCCCCC/C=C\CCCCCCCC)cc(C2OCC(CN3CCCC3)O2)c1 (stereo not drawn) [Example 9, 1-((2-(3,5-bis((Z)-octadec-9-en-1-yloxy)phenyl)-1,3-dioxolan-4-yl)methyl)pyrrolidine] | 1832 | 1352 | 29707 | 18788 |  |  | 
CCCCC/C=C\C/C=C\CCCCCCCCOc1cc(COC(=O)CCCN(C)C)cc(OCCCCCCCC/C=C\C/C=C\CCCCC)c1 [Example 13, 3,5-bis((9Z,12Z)-octadeca-9,12-dien-1-yloxy)benzyl 4-(dimethylamino)butanoate] | 495 | 620 | 7157 | 12316 |  |  | 
CCCCC/C=C\C/C=C\CCCCCCCC(=O)OCc1cc(COC(=O)CCCCCCC/C=C\C/C=C\CCCCC)cc(COC(=O)OCCCN(CC)CC)c1 [Example 69, (9Z,9′Z,12Z,12′Z)-(5-((((3-(diethylamino)propoxy)carbonyl)oxy)methyl)-1,3-phenylene)bis(methylene)bis(octadeca-9,12-dienoate)] | 2853 | 4481 | 23851 | 20793 | 19075 | 21504 | 
